According to ChEMBL document CHEMBL6177951, “Synthesis and anti-MRSA activity of quaternized small molecule antimicrobial peptide mimics based on norharmane” (Eur J Med Chem, 2025):
Converted amounts (≈) assume the structure as drawn. The source made the active and inactive calls. The rule behind the calls is not given here.

Tests used:
[1] = tested on: Staphylococcus aureus; assay: Antibacterial activity against Staphylococcus aureus ATCC 25923 assessed as inhibition of bacterial growth incubated for 14 hrs by two-fold serial dilution method; type: functional
[2] = tested on: Staphylococcus aureus; assay: Antibacterial activity against Staphylococcus aureus ATCC 29213 assessed as inhibition of bacterial growth incubated for 14 hrs by two-fold serial dilution method; type: functional
[3] = tested on: Staphylococcus aureus; assay: Antibacterial activity against Staphylococcus aureus CMCC 26003 assessed as inhibition of bacterial growth incubated for 14 hrs by two-fold serial dilution method; type: functional
[4] = tested on: Staphylococcus aureus; assay: Antibacterial activity against methicillin-resistant Staphylococcus aureus ATCC 43300 assessed as inhibition of bacterial growth incubated for 14 hrs by two-fold serial dilution method; type: functional
[5] = tested on: Staphylococcus aureus; assay: Antibacterial activity against methicillin-resistant Staphylococcus aureus ATCC 33591 assessed as inhibition of bacterial growth incubated for 14 hrs by two-fold serial dilution method; type: functional
[6] = tested on: Staphylococcus aureus; assay: Antibacterial activity against Staphylococcus aureus ATCC 33591 assessed as log reduction in bacterial growth at 1 times MIC measured at 6 hrs by time-kill kinetic assay; type: functional
[7] = tested on: Staphylococcus aureus; assay: In vivo antibacterial activity against methicillin-resistant Staphylococcus aureus infected in female Kunming mouse skin infection model assessed as log reduction in bacterial load at 5 mg/kg measured after 48 hrs (reference value: 14.34 log10CFU/g); type: functional
[8] = tested on: Staphylococcus aureus; assay: In vivo antibacterial activity against methicillin-resistant Staphylococcus aureus infected in female Kunming mouse skin infection model assessed as recovery of dorsal surface at 5 to 20 mg/kg measured after 48 hrs; type: functional, organism-based; details: dose 5-20 mg/kg
[9] = tested on: Staphylococcus aureus; assay: In vivo antibacterial activity against methicillin-resistant Staphylococcus aureus infected in female Kunming mouse skin infection model assessed as reduction in inflammatory cells at 5 to 20 mg/kg measured after 48 hrs by H and E staining based analysis; type: functional, organism-based; details: dose 5-20 mg/kg
[10] = tested on: Staphylococcus aureus; assay: Antibacterial activity against methicillin-resistant Staphylococcus aureus clinical isolate M-13 incubated for 14 hrs by two-fold serial dilution method; type: functional
[11] = tested on: Staphylococcus aureus; assay: Antibacterial activity against methicillin-resistant Staphylococcus aureus clinical isolate M-14 incubated for 14 hrs by two-fold serial dilution method; type: functional
[12] = tested on: Staphylococcus aureus; assay: Antibacterial activity against methicillin-resistant Staphylococcus aureus clinical isolate M-15 incubated for 14 hrs by two-fold serial dilution method; type: functional
[13] = tested on: Staphylococcus aureus; assay: Antibacterial activity against methicillin-resistant Staphylococcus aureus clinical isolate M-16 incubated for 14 hrs by two-fold serial dilution method; type: functional
[14] = tested on: Staphylococcus aureus; assay: Antibacterial activity against methicillin-resistant Staphylococcus aureus clinical isolate M-17 incubated for 14 hrs by two-fold serial dilution method; type: functional
[15] = tested on: Staphylococcus aureus; assay: Antibacterial activity against methicillin-resistant Staphylococcus aureus clinical isolate M-18 incubated for 14 hrs by two-fold serial dilution method; type: functional
[16] = tested on: Staphylococcus aureus; assay: Antibacterial activity against methicillin-resistant Staphylococcus aureus clinical isolate M-19 incubated for 14 hrs by two-fold serial dilution method; type: functional
[17] = tested on: Staphylococcus aureus; assay: Antibacterial activity against methicillin-resistant Staphylococcus aureus clinical isolate M-20 incubated for 14 hrs by two-fold serial dilution method; type: functional
[18] = tested on: Staphylococcus aureus; assay: Antibacterial activity against methicillin-resistant Staphylococcus aureus clinical isolate M-21 incubated for 14 hrs by two-fold serial dilution method; type: functional
[19] = tested on: Staphylococcus aureus; assay: Antibacterial activity against methicillin-resistant Staphylococcus aureus clinical isolate M-22 incubated for 14 hrs by two-fold serial dilution method; type: functional
[20] = tested on: Staphylococcus aureus; assay: Antibacterial activity against methicillin-resistant Staphylococcus aureus clinical isolate M-23 incubated for 14 hrs by two-fold serial dilution method; type: functional
[21] = tested on: Staphylococcus aureus; assay: Antibacterial activity against Staphylococcus aureus ATCC 33591 assessed as resistance development by measuring fold increase in MIC at 0.5 times MIC incubated for 8 hrs and measured after 15 passages; type: functional

Row | SMILES | MIC [1] | MIC [2] | MIC [3] | MIC [4] | MIC [5] | further results
1 | CC[n+]1ccc2c3ccccc3n(CC[N+](CC)(CC)CC)c2c1.[Br-].[Br-] | 128 µg/mL | > 128 µg/mL | > 128 µg/mL | > 128 µg/mL | > 128 µg/mL | –
2 | CN[C@H](CC(C)C)C(=O)N[C@H]1C(=O)N[C@@H](CC(N)=O)C(=O)N[C@H]2C(=O)N[C@H]3C(=O)N[C@H](C(=O)N[C@H](C(=O)O)c4cc(O)cc(O)c4-c4cc3ccc4O)[C@H](O)c3ccc(c(Cl)c3)Oc3cc2cc(c3O[C@@H]2O[C@H](CO)[C@@H](O)[C@H](O)[C@H]2O[C@H]2C[C@](C)(N)[C@H](O)[C@H](C)O2)Oc2ccc(cc2Cl)[C@H]1O [VANCOMYCIN] | – | – | – | – | – | Activity [6]: 2.74 log10CFU/ml; Activity [7]: 4.99 log10CFU/g; Activity [8]: Active; Activity [9]: Active
3 | C[n+]1ccc2c3ccccc3n(CCCCCCCCCn3c4ccccc4c4cc[n+](C)cc43)c2c1.[I-].[I-] | 4 µg/mL | 2 µg/mL | 0.5 µg/mL | 4 µg/mL | 0.5 µg/mL | MIC [10]: 1 µg/mL; MIC [11]: 1 µg/mL; MIC [12]: 4 µg/mL; MIC [13]: 2 µg/mL; MIC [14]: 4 µg/mL; MIC [15]: 4 µg/mL; MIC [16]: 4 µg/mL; MIC [17]: 2 µg/mL; MIC [18]: 4 µg/mL; MIC [19]: 2 µg/mL; MIC [20]: 4 µg/mL
4 | c1ccc2c(c1)[nH]c1cnccc12 [NORHARMANE] | 32 µg/mL (≈ 190 µM) | 64 µg/mL (≈ 381 µM) | 64 µg/mL (≈ 381 µM) | 64 µg/mL (≈ 381 µM) | 64 µg/mL (≈ 381 µM) | –
5 | c1ccc2c(c1)c1ccncc1n2CCCCCCCCCn1c2ccccc2c2ccncc21 | > 128 µg/mL | > 128 µg/mL | > 128 µg/mL | > 128 µg/mL | > 128 µg/mL | –
6 | CCCC[n+]1ccc2c3ccccc3n(CC[N+](C)(C)CCCC)c2c1.[Br-].[Br-] | 128 µg/mL | > 128 µg/mL | > 128 µg/mL | > 128 µg/mL | 128 µg/mL | –
7 | CCCC[n+]1ccc2c3ccccc3n(CCN(CC)CC)c2c1.[Br-] | 16 µg/mL | 128 µg/mL | 16 µg/mL | 64 µg/mL | 64 µg/mL | –
8 | c1ccc2c(c1)c1ccncc1n2CCCCCCCCCCn1c2ccccc2c2ccncc21 | > 128 µg/mL | > 128 µg/mL | > 128 µg/mL | > 128 µg/mL | > 128 µg/mL | –
9 | CC[N+](C)(CC)CCn1c2ccccc2c2cc[n+](C)cc21.[I-].[I-] | 128 µg/mL | > 128 µg/mL | > 128 µg/mL | > 128 µg/mL | > 128 µg/mL | –
10 | CN(C)CCn1c2ccccc2c2ccncc21 | 64 µg/mL (≈ 267 µM) | 64 µg/mL (≈ 267 µM) | > 128 µg/mL | > 128 µg/mL | 128 µg/mL (≈ 535 µM) | –
11 | C[n+]1ccc2c3ccccc3n(CCCCCCCCCCCCn3c4ccccc4c4cc[n+](C)cc43)c2c1.[I-].[I-] | 1 µg/mL | 0.5 µg/mL | 0.5 µg/mL | 1 µg/mL | 0.5 µg/mL | MIC [10]: 1 µg/mL; MIC [11]: 1 µg/mL; MIC [12]: 1 µg/mL; MIC [13]: 1 µg/mL; MIC [14]: 1 µg/mL; MIC [15]: 1 µg/mL; MIC [16]: 1 µg/mL; MIC [17]: 1 µg/mL; MIC [18]: 1 µg/mL; MIC [19]: 1 µg/mL; MIC [20]: 1 µg/mL
12 | CC[n+]1ccc2c3ccccc3n(CC[N+](C)(C)CC)c2c1.[Br-].[Br-] | 128 µg/mL | > 128 µg/mL | > 128 µg/mL | > 128 µg/mL | > 128 µg/mL | –
13 | c1ccc2c(c1)c1ccncc1n2CCCCCCCCCCCCn1c2ccccc2c2ccncc21 | > 128 µg/mL | > 128 µg/mL | > 128 µg/mL | > 128 µg/mL | > 128 µg/mL | –
14 | CCN(CC)CCn1c2ccccc2c2cc[n+](CC)cc21.[Br-] | 32 µg/mL | > 128 µg/mL | 32 µg/mL | > 128 µg/mL | 128 µg/mL | –
15 | CCN(CC)CCn1c2ccccc2c2ccncc21 | 64 µg/mL (≈ 239 µM) | 128 µg/mL (≈ 479 µM) | 128 µg/mL (≈ 479 µM) | 128 µg/mL (≈ 479 µM) | 128 µg/mL (≈ 479 µM) | –
16 | CCC[n+]1ccc2c3ccccc3n(CC[N+](C)(C)CCC)c2c1.[Br-].[Br-] | 64 µg/mL | > 128 µg/mL | > 128 µg/mL | > 128 µg/mL | > 128 µg/mL | –
17 | c1ccc2c3c([nH]c2c1)CNCC3 [TRYPTOLINE] | 128 µg/mL (≈ 743 µM) | > 128 µg/mL | 128 µg/mL (≈ 743 µM) | 128 µg/mL (≈ 743 µM) | 128 µg/mL (≈ 743 µM) | –
18 | C[n+]1ccc2c3ccccc3n(CCCCCCCCCCn3c4ccccc4c4cc[n+](C)cc43)c2c1.[I-].[I-] | 2 µg/mL | 1 µg/mL | 0.5 µg/mL | 2 µg/mL | 0.5 µg/mL | MIC [10]: 1 µg/mL; MIC [11]: 1 µg/mL; MIC [12]: 2 µg/mL; MIC [13]: 1 µg/mL; MIC [14]: 2 µg/mL; MIC [15]: 2 µg/mL; MIC [16]: 2 µg/mL; MIC [17]: 1 µg/mL; MIC [18]: 2 µg/mL; MIC [19]: 1 µg/mL; MIC [20]: 2 µg/mL
19 | c1ccc2c(c1)c1ccncc1n2CCCCCCCCCCCn1c2ccccc2c2ccncc21 | > 128 µg/mL | > 128 µg/mL | > 128 µg/mL | > 128 µg/mL | > 128 µg/mL | –
20 | CCC[n+]1ccc2c3ccccc3n(CCN(CC)CC)c2c1.[Br-] | 32 µg/mL | > 128 µg/mL | 32 µg/mL | 128 µg/mL | 128 µg/mL | –
21 | CCCCC[n+]1ccc2c3ccccc3n(CCN(CC)CC)c2c1.[Br-] | 8 µg/mL | 128 µg/mL | 16 µg/mL | 32 µg/mL | 32 µg/mL | –
22 | CCn1cc(C(=O)O)c(=O)c2cc(F)c(N3CCNCC3)cc21 [NORFLOXACIN] | – | – | – | – | – | fold change (FC) [21]: 16
23 | CCCCC[n+]1ccc2c3ccccc3n(CC[N+](C)(C)CCCCC)c2c1.[Br-].[Br-] | 128 µg/mL | > 128 µg/mL | > 128 µg/mL | > 128 µg/mL | > 128 µg/mL | –
24 | C[n+]1ccc2c3ccccc3n(CC[N+](C)(C)C)c2c1.[I-].[I-] | 128 µg/mL | > 128 µg/mL | > 128 µg/mL | > 128 µg/mL | > 128 µg/mL | –
